Details: Fluid (supercritical or subcritical phases), Coaxial cylinder method

CCCCCC [hexane]
Details	thermal conductivity [W/m/K]
508.92 K, 3545 kPa	0.06984
508.92 K, 3550 kPa	0.07041
508.92 K, 3555 kPa	0.07041
508.92 K, 3560 kPa	0.07041
508.92 K, 3565 kPa	0.07041
508.92 K, 3570 kPa	0.07041
508.92 K, 3605 kPa	0.06984
508.92 K, 3670 kPa	0.06984
508.92 K, 3690 kPa	0.06984
508.92 K, 3700 kPa	0.0707
508.92 K, 3900 kPa	0.0707
508.92 K, 4000 kPa	0.0707
508.92 K, 4300 kPa	0.07129
508.92 K, 4400 kPa	0.07159
508.92 K, 4500 kPa	0.07188
508.92 K, 4600 kPa	0.07219
508.92 K, 4700 kPa	0.07219
508.92 K, 4800 kPa	0.0725
508.92 K, 4900 kPa	0.0725
508.92 K, 5000 kPa	0.0728
508.92 K, 5100 kPa	0.0728
508.92 K, 5200 kPa	0.07342
508.92 K, 5300 kPa	0.07342
508.92 K, 5400 kPa	0.07342
508.92 K, 5500 kPa	0.07373
508.92 K, 5600 kPa	0.07437
508.92 K, 5800 kPa	0.07437
508.92 K, 6000 kPa	0.07437
508.92 K, 6100 kPa	0.07437
508.92 K, 6200 kPa	0.07469
508.92 K, 6400 kPa	0.07501
508.92 K, 6500 kPa	0.07534
508.92 K, 7000 kPa	0.07634
508.92 K, 7500 kPa	0.07702
508.92 K, 8000 kPa	0.07771
508.92 K, 8500 kPa	0.07771
508.92 K, 9000 kPa	0.07828
508.92 K, 9500 kPa	0.07915
508.92 K, 10000 kPa	0.07951
509.85 K, 2686 kPa	0.04642
509.85 K, 2700 kPa	0.04668
509.85 K, 2710 kPa	0.04655
509.85 K, 2720 kPa	0.04706
509.85 K, 2730 kPa	0.0472
509.85 K, 2740 kPa	0.04733
509.85 K, 2750 kPa	0.04759
509.85 K, 2760 kPa	0.04786
509.85 K, 2770 kPa	0.04813
509.85 K, 2780 kPa	0.04827
509.85 K, 2790 kPa	0.04841
509.85 K, 2800 kPa	0.04854
509.85 K, 2805 kPa	0.04868
509.85 K, 2810 kPa	0.04882
509.85 K, 2815 kPa	0.0491
509.85 K, 2820 kPa	0.04925
509.85 K, 2825 kPa	0.04939
509.85 K, 2830 kPa	0.04953
509.85 K, 2835 kPa	0.04968
509.85 K, 2840 kPa	0.04957
509.85 K, 2845 kPa	0.04972
509.85 K, 2850 kPa	0.04986
509.85 K, 2855 kPa	0.05001
509.85 K, 2860 kPa	0.05016
509.85 K, 2865 kPa	0.05031
509.85 K, 2870 kPa	0.05046
509.85 K, 2875 kPa	0.05061
509.85 K, 2880 kPa	0.05077
509.85 K, 2885 kPa	0.05123
509.85 K, 2890 kPa	0.05123
509.85 K, 2895 kPa	0.05139
509.85 K, 2900 kPa	0.05154
509.85 K, 2905 kPa	0.0517
509.85 K, 2910 kPa	0.05186
509.85 K, 2915 kPa	0.05218
509.85 K, 2920 kPa	0.05243
509.85 K, 2925 kPa	0.05259
509.85 K, 2930 kPa	0.05293
509.85 K, 2935 kPa	0.05309
509.85 K, 2940 kPa	0.05326
509.85 K, 2945 kPa	0.05344
509.85 K, 2950 kPa	0.05378
509.85 K, 2955 kPa	0.05395
509.85 K, 2960 kPa	0.05431
